Starred links: 1 amine or outer side, 2 acyl side, 3 side chain; linkers in the order of their positions; H or OH if unused. Positions of bridges follow the written chain, without caps; N, C: chain ends. Non-standard residues stand in square brackets, D forms with d. Residues, ends and D or L forms follow the SMILES beside them. *: point of attachment. hPhe(3,5-F2-4-CF3) = N[C@@H](CCc1cc(F)c(C(F)(F)F)c(F)c1)C(=O)O; hPhe(3-Cl-4-CF3) = N[C@@H](CCc1ccc(C(F)(F)F)c(Cl)c1)C(=O)O; NMePhe(4-CF3) = CN[C@@H](Cc1ccc(C(F)(F)F)cc1)C(=O)O; Thiomorpholino(1,1-dioxo) = O=S1(=O)CCN(*)CC1; NMeAbu(4,4,4-F3) = CN[C@@H](CC(F)(F)F)C(=O)O; NMePhe(4-Cl) = CN[C@@H](Cc1ccc(Cl)cc1)C(=O)O; NMePhe(4-Me) = CN[C@@H](Cc1ccc(C)cc1)C(=O)O; X8 = O=C([C@H](Cc1cc(I)ccc1F)N[*:1])[*:2]; NMeGly(cPent) = CN[C@H](C(=O)O)C1CCCC1; Phe(3-I) = N[C@@H](Cc1cccc(I)c1)C(=O)O; Pro(4,4-F2) = O=C(O)[C@@H]1CC(F)(F)CN1; NMeGly(cBu) = CN[C@H](C(=O)O)C1CCC1; NMeY = CN[C@@H](Cc1ccc(O)cc1)C(=O)O; NMeCha = CN[C@@H](CC1CCCCC1)C(=O)O; NMehLeu = CN[C@@H](CCC(C)C)C(=O)O; NEtLeu = CCN[C@@H](CC(C)C)C(=O)O; NMeChg = CN[C@H](C(=O)O)C1CCCCC1; NMeI = CC[C@H](C)[C@H](NC)C(=O)O; NMeD = CN[C@@H](CC(=O)O)C(=O)O; NMeL = CN[C@@H](CC(C)C)C(=O)O; Morpholide = C1CN(*)CCO1; NMeA = CN[C@@H](C)C(=O)O; NMeAib = CNC(C)(C)C(=O)O; Nle = CCCC[C@H](N)C(=O)O; Piperidide = C1CCN(*)CC1; Pra = C#CC[C@H](N)C(=O)O; Pyrrolidide = C1CCN(*)C1; Ac5c = NC1(C(=O)O)CCCC1; Aze = O=C(O)[C@@H]1CCN1; CF3 = FC(F)(F)*; Sar = CNCC(=O)O
Target: T1, Kras and SOS1 (biotin-tagged human Kras loaded with GDP, His-tagged human SOS1) (Homo sapiens, UniProt P01116, G12D)
T1 construct: made in house; host or cells: E. coli (stated for Kras only)
T1 sequence (P01116 1-188 isoform P01116-2 G12D): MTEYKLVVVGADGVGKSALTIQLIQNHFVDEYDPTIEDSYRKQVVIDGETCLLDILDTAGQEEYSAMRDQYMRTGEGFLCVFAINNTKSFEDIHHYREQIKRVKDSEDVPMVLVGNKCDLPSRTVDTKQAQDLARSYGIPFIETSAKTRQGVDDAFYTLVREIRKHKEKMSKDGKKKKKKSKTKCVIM
Experiment: Protein-protein interaction inhibition between Kras and SOS1 (KrasGl2D-SOS PPI) using AlphaScreen
Format: binding
Conditions: AlphaScreen; biotin-tagged human Kras loaded with GDP, His-tagged human SOS1; read-out: KRAS G12D-SOS PPI IC50
In short: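 AlphaScreen format: Ni donor beads capture His-SOS1, streptavidin acceptor beads capture biotinylated Kras (E. coli-expressed, GDP-loaded post-purification). Excite 680 nm, read 520-620 nm.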

SMILES | IC50 [nM]
CC[C@H](C)[C@@H]1NC(=O)[C@H](CC(C)C)N(C)C(=O)C[C@@H](C(=O)N2CCCCC2)NC(=O)[C@H](C2CCCCC2)N(C)C(=O)C2(CCCC2)NC(=O)[C@@H]2CCCN2C(=O)[C@H](CCc2ccc(C(F)(F)F)c(Cl)c2)NC(=O)CN(C)C(=O)[C@H](CC2CCCCC2)N(C)C(=O)CN(C)C(=O)CN(C)C1=O [Compound 1274] ([NMeL]I[Sar][Sar][NMeCha][Sar][hPhe(3-Cl-4-CF3)]P[Ac5c][NMeChg]D-Piperidide; lactam N-11) | 3.8
CC[C@H](C)[C@@H]1NC(=O)[C@H](CC(C)C)N(C)C(=O)C[C@@H](C(=O)N2CCOCC2)NC(=O)[C@H]([C@@H](C)CC)N(C)C(=O)C2(CCCC2)NC(=O)[C@@H]2CCCN2C(=O)[C@H](CCc2ccc(C(F)(F)F)c(Cl)c2)NC(=O)CN(C)C(=O)[C@H](CC2CCCCC2)N(C)C(=O)CN(C)C(=O)CN(C)C1=O [Compound 1277] ([NMeL]I[Sar][Sar][NMeCha][Sar][hPhe(3-Cl-4-CF3)]P[Ac5c][NMeI]D-Morpholide; lactam N-11) | 6.7
CC[C@H](C)[C@@H]1NC(=O)[C@H](CC(C)C)N(C)C(=O)C[C@@H](C(=O)N2CCS(=O)(=O)CC2)NC(=O)[C@H]([C@@H](C)CC)N(C)C(=O)C2(CCCC2)NC(=O)[C@@H]2CCCN2C(=O)[C@H](CCc2ccc(C(F)(F)F)c(Cl)c2)NC(=O)CN(C)C(=O)[C@H](CC2CCCCC2)N(C)C(=O)CN(C)C(=O)CN(C)C1=O [Compound 1279] ([NMeL]I[Sar][Sar][NMeCha][Sar][hPhe(3-Cl-4-CF3)]P[Ac5c][NMeI]D-{Thiomorpholino(1,1-dioxo)}; lactam N-11) | 16
CC[C@H](C)[C@@H]1NC(=O)[C@H](CC(F)(F)F)N(C)C(=O)C[C@@H](C(=O)N2CCCC2)N(C)C(=O)[C@H](C2CCCCC2)N(C)C(=O)C2(CCCC2)NC(=O)[C@@H]2CC(F)(F)CN2C(=O)[C@H](CCc2cc(F)c(C(F)(F)F)c(F)c2)NC(=O)CN(C)C(=O)[C@H](CC2CCCCC2)N(C)C(=O)CN(C)C(=O)CN(C)C1=O [Compound 1281] ([NMeAbu(4,4,4-F3)]I[Sar][Sar][NMeCha][Sar][hPhe(3,5-F2-4-CF3)][Pro(4,4-F2)][Ac5c][NMeChg][NMeD]-Pyrrolidide; lactam N-11) | 0.42
CC[C@H](C)[C@@H]1NC(=O)[C@H](CC(C)C)N(CC)C(=O)C[C@@H](C(=O)N(C)C)N(C)C(=O)[C@H](C2CCCC2)N(C)C(=O)C2(CCCC2)NC(=O)[C@@H]2CCCN2C(=O)[C@H](CCc2ccc(C(F)(F)F)c(Cl)c2)NC(=O)CN(C)C(=O)[C@H](Cc2ccc(C)cc2)N(C)C(=O)[C@@H]2CCN2C(=O)[C@H](C)NC1=O [Compound 1282] ([NEtLeu]IA[Aze][NMePhe(4-Me)][Sar][hPhe(3-Cl-4-CF3)]P[Ac5c][NMeGly(cPent)][NMeD]-NMe2; lactam N-11) | 0.81
CCCC[C@@H]1NC(=O)[C@H](Cc2cc(I)ccc2F)NC(=O)CN(C)C(=O)[C@H](Cc2ccc(Cl)cc2)N(C)C(=O)CN(C)C(=O)CN(C)C(=O)[C@H]([C@@H](C)CC)NC(=O)[C@H](CC(C)C)N(C)C(=O)C[C@@H](C(=O)N2CCCCC2)N(C)C(=O)[C@H](CC(C)C)NC(=O)C(C)(C)N(C)C1=O [Compound 1286] ([NMeL]I[Sar][Sar][NMePhe(4-Cl)][Sar][X8][Nle][NMeAib]L[NMeD]-Piperidide; lactam N-11) | 24
C#CC[C@@H]1NC(=O)[C@H](Cc2cccc(I)c2)NC(=O)CN(C)C(=O)[C@H](Cc2ccc(OC(F)(F)F)cc2)N(C)C(=O)[C@@H]2CCN2C(=O)[C@H](C)N(C)C(=O)[C@H]([C@@H](C)CC)NC(=O)[C@H](CC(C)C)N(C)C(=O)C[C@@H](C(=O)N2CCCCC2)N(C)C(=O)[C@H](CC(C)C)NC(=O)C(C)(C)N(C)C1=O [Compound 1288] ([NMeL]I[NMeA][Aze][NMeY](CF3)[Sar][Phe(3-I)][Pra][NMeAib]L[NMeD]-Piperidide; lactam N-11) | 31
CC[C@H](C)[C@@H]1NC(=O)[C@H](CCC(C)C)N(C)C(=O)C[C@@H](C(=O)N2CCCC2)N(C)C(=O)[C@H]([C@@H](C)CC)N(C)C(=O)C2(CCCC2)NC(=O)[C@@H]2CCCN2C(=O)[C@H](CCc2ccc(C(F)(F)F)c(Cl)c2)NC(=O)CN(C)C(=O)[C@H](Cc2ccc(C(F)(F)F)cc2)N(C)C(=O)[C@@H]2CCN2C(=O)[C@H](C)N(C)C1=O [Compound 1289] ([NMehLeu]I[NMeA][Aze][NMePhe(4-CF3)][Sar][hPhe(3-Cl-4-CF3)]P[Ac5c][NMeI][NMeD]-Pyrrolidide; lactam N-11) | 0.67
CC[C@H](C)[C@@H]1NC(=O)[C@H](C2CCC2)N(C)C(=O)C[C@@H](C(=O)N2CCCC2)N(C)C(=O)[C@H](C2CCCCC2)N(C)C(=O)C2(CCCC2)NC(=O)[C@@H]2CC(F)(F)CN2C(=O)[C@H](CCc2cc(F)c(C(F)(F)F)c(F)c2)NC(=O)CN(C)C(=O)[C@H](CC2CCCCC2)N(C)C(=O)CN(C)C(=O)CN(C)C1=O [Compound 1295] ([NMeGly(cBu)]I[Sar][Sar][NMeCha][Sar][hPhe(3,5-F2-4-CF3)][Pro(4,4-F2)][Ac5c][NMeChg][NMeD]-Pyrrolidide; lactam N-11) | 0.5

Source: patent US12371454B2, “Cyclic peptide compound having Kras inhibitory action” (priority 2019, dated 2025)
